In paper PMC9151804, “Carotenoid binding in Gloeobacteria rhodopsin provides insights into divergent evolution of xanthorhodopsin types” (Communications Biology, 2022):

Tests used:
Assay in all cases: co-expression in E. coli, purification, chromophore extraction and absorbance
Format in all cases: binding
Conditions in all cases: all-trans-retinal-bound protein; 0.02% DDM, 150 mM NaCl, 50 mM Tris, pH 7.0
[1] = molecular target: T1, Gloeobacter rhodopsin (GR) (Gloeobacter violaceus, UniProt Q7NP59, G178W)
T1 construct: gene gll0198
T1 sequence (Q7NP59 entry or part of it G178W): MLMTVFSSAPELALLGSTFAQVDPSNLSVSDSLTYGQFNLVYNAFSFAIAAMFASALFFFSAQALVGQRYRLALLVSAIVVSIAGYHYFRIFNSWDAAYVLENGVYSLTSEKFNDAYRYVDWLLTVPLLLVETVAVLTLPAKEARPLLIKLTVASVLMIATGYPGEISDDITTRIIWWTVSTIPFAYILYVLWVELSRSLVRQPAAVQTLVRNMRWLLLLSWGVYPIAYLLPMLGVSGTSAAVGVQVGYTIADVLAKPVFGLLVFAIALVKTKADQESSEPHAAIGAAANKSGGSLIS

[2] = molecular target: T2, Gloeobacter rhodopsin (GR) (Gloeobacter violaceus, UniProt Q7NP59, P226G/I227G)
T2 construct: gene gll0198
T2 sequence (Q7NP59 entry or part of it P226G/I227G): as the sequence (Q7NP59 entry or part of it G178W) above, with W178G, P226G, I227G counted along it

[3] = molecular target: T3, Gloeobacter rhodopsin (GR) (Gloeobacter violaceus, UniProt Q7NP59, P226G)
T3 construct: gene gll0198
T3 sequence (Q7NP59 entry or part of it P226G): as the sequence (Q7NP59 entry or part of it G178W) above, with W178G, P226G counted along it

[4] = molecular target: T4, Gloeobacter rhodopsin (GR) (Gloeobacter violaceus, UniProt Q7NP59, T179G/T182G/F185G)
T4 construct: gene gll0198
T4 sequence (Q7NP59 entry or part of it T179G/T182G/F185G): as the sequence (Q7NP59 entry or part of it G178W) above, with W178G, T179G, T182G, F185G counted along it

[5] = molecular target: T5, Gloeobacter rhodopsin (GR) (Gloeobacter violaceus, UniProt Q7NP59, I227G)
T5 construct: gene gll0198
T5 sequence (Q7NP59 entry or part of it I227G): as the sequence (Q7NP59 entry or part of it G178W) above, with W178G, I227G counted along it

[6] = molecular target: T6, Gloeobacter rhodopsin (GR) (Gloeobacter violaceus, UniProt Q7NP59, F185G)
T6 construct: gene gll0198
T6 sequence (Q7NP59 entry or part of it F185G): as the sequence (Q7NP59 entry or part of it G178W) above, with W178G, F185G counted along it

[7] = molecular target: T7, Gloeobacter rhodopsin (GR) (Gloeobacter violaceus, UniProt Q7NP59)
T7 construct: gene gll0198
T7 sequence (Q7NP59 1-298): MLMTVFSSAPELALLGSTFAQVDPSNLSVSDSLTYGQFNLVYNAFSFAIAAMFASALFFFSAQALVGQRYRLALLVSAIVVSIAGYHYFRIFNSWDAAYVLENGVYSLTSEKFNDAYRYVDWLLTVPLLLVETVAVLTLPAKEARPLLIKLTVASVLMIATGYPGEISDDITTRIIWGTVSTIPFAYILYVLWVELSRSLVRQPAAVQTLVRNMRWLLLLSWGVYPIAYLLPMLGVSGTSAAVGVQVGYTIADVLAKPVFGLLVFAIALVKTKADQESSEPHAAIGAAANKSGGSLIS

[8] = molecular target: T8, Gloeobacter rhodopsin (GR) (Gloeobacter violaceus, UniProt Q7NP59, T179G/T182G)
T8 construct: gene gll0198
T8 sequence (Q7NP59 entry or part of it T179G/T182G): as the sequence (Q7NP59 entry or part of it G178W) above, with W178G, T179G, T182G counted along it

[9] = molecular target: T9, Gloeobacter rhodopsin (GR) (Gloeobacter violaceus, UniProt Q7NP59, S181G)
T9 construct: gene gll0198
T9 sequence (Q7NP59 entry or part of it S181G): as the sequence (Q7NP59 entry or part of it G178W) above, with W178G, S181G counted along it

[10] = molecular target: T10, Gloeobacter rhodopsin (GR) (Gloeobacter violaceus, UniProt Q7NP59, T179G)
T10 construct: gene gll0198
T10 sequence (Q7NP59 entry or part of it T179G): as the sequence (Q7NP59 entry or part of it G178W) above, with W178G, T179G counted along it

[11] = molecular target: T11, Gloeobacter rhodopsin (GR) (Gloeobacter violaceus, UniProt Q7NP59, S221G)
T11 construct: gene gll0198
T11 sequence (Q7NP59 entry or part of it S221G): as the sequence (Q7NP59 entry or part of it G178W) above, with W178G, S221G counted along it

SMILES: CC1=C(/C=C/C(C)=C/C=C/C(C)=C/C=C/C=C(C)/C=C/C=C(C)/C=C/C2=C(C)C(=O)CCC2(C)C)C(C)(C)CCC1=O [canthaxanthin]
- carotenoid binding [1]: with retinal and carotenoid showed no carotenoid binding in the absorption spectrum
- carotenoid/retinal binding ratio [2]: ~ 29%
- carotenoid/retinal binding ratio [3]: ~ 48%
- carotenoid/retinal binding ratio [4]: ~ 5%
- carotenoid/retinal binding ratio [5]: ~ 42%
- carotenoid/retinal binding ratio [6]: ~ 37%
- carotenoid/retinal binding ratio [7]: ~ 87%
- carotenoid/retinal binding ratio [8]: ~ 19%
- carotenoid/retinal binding ratio [9]: All mutants critical affect the carotenoid binding but not S181G
- carotenoid/retinal binding ratio [10]: ~ 41%
- carotenoid/retinal binding ratio [11]: ~ 69%
